ChEMBL document CHEMBL1201862, “PubChem BioAssay data set” (2004)
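Results reflect a 48-hour exposure of cells in 96-well plates to compound at five concentrations. GI50: concentration for 50% inhibition of growth.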 Activity calls are given as the source filed them. No stated cut-off is given here; in the data, active = GI50 up to about 1.1 µM and inactive = higher.

How the values were obtained:
Test in all cases: growth of human tumour cells (NCI), 48 h
RPMI-8226 = test system: RPMI-8226
K562 = test system: K562
TK-10 = test system: TK-10
SF-295 = test system: SF-295
SF-539 = test system: SF-539
SK-MEL-28 = test system: SK-MEL-28
IGROV-1 = test system: IGROV-1
SK-MEL-5 = test system: SK-MEL-5
OVCAR-5 = test system: OVCAR-5
CCRF-CEM = test system: CCRF-CEM
NCI-H522 = test system: NCI-H522
OVCAR-8 = test system: OVCAR-8
NCI-H460 = test system: NCI-H460
HOP-92 = test system: HOP-92

Measured: GI50

COc1ccc(S(=O)(=O)N[C@H](C(=O)O)c2ccccc2)cc1
inactive: RPMI-8226 > 100 µM | K562 > 100 µM | TK-10 > 100 µM | SF-295 > 100 µM | SF-539 > 100 µM | SK-MEL-28 > 100 µM | IGROV-1 > 100 µM | SK-MEL-5 > 100 µM | OVCAR-5 > 100 µM | CCRF-CEM > 100 µM | NCI-H522 > 10 µM | OVCAR-8 > 100 µM | NCI-H460 > 100 µM

Cc1cc(C)c(-c2noc(-c3ccc(Cl)cc3)c2C2=NCCN2)c(C)c1
inactive: RPMI-8226 17.9 µM | K562 14.8 µM | SF-295 14 µM | SF-539 16.8 µM | SK-MEL-28 17.7 µM | IGROV-1 22.2 µM | SK-MEL-5 11.7 µM | OVCAR-5 32.1 µM | CCRF-CEM 20.7 µM | NCI-H522 > 10 µM | OVCAR-8 > 10 µM | NCI-H460 13.8 µM

CC1OC(OP(=O)(OCc2ccccc2)OCc2ccccc2)C(OC(=O)c2ccccc2)C(OC(=O)c2ccccc2)C1I (stereo unspecified)
inactive: RPMI-8226 19.6 µM | K562 29.3 µM | TK-10 > 100 µM | SF-295 88.3 µM | SK-MEL-28 86.7 µM | IGROV-1 76 µM | SK-MEL-5 27.3 µM | OVCAR-5 98.6 µM | CCRF-CEM 24.5 µM | NCI-H522 21.4 µM | OVCAR-8 98.4 µM | NCI-H460 34 µM

O=C(/C=C/c1ccccc1F)c1ccc([N+](=O)[O-])cc1
inactive: RPMI-8226 2 µM | K562 5.77 µM | TK-10 23.9 µM | HOP-92 16.3 µM | SF-295 27.9 µM | SK-MEL-28 18.4 µM | IGROV-1 24.3 µM | OVCAR-8 25.8 µM | NCI-H460 30.8 µM

Cc1ccc(S(=O)(=O)NCCCN(CCCNS(=O)(=O)c2ccc(C)cc2)S(=O)(=O)c2ccc(C)cc2)cc1
inactive: RPMI-8226 > 100 µM | K562 > 100 µM | TK-10 > 100 µM | SF-295 > 100 µM | SF-539 > 100 µM | SK-MEL-28 > 100 µM | IGROV-1 > 100 µM | CCRF-CEM > 100 µM | NCI-H522 > 100 µM | OVCAR-8 > 100 µM | NCI-H460 > 100 µM

c1ccc2c(c1)SC(=C1Sc3ccccc3S1)S2
inactive: K562 > 100 µM | TK-10 > 100 µM | HOP-92 61.7 µM | SF-295 > 100 µM | SK-MEL-28 > 100 µM | IGROV-1 > 100 µM | CCRF-CEM > 100 µM | OVCAR-8 > 100 µM | NCI-H460 55.8 µM
